# Laboratory results published in patent US20220411362A1, “DITERPENOID COMPOUNDS THAT ACT ON PROTEIN KINASE C (PKC)” (K-Gen, Inc., priority 2019, published 2022).
# Key:
# [1] = biological target: T1, C1b domain of human PKD1 (PKCμ) (Homo sapiens, UniProt Q15139); experiment: biochemical; type: binding
# T1 construct: Genes encoding C1b domains of human PKCα, δ, ε, θ, and PKD1 (PKCμ) were synthesized; made in house; host or cells: E. coli BL21(DE3)
# T1 sequence (Q15139 270-320 limits assumed): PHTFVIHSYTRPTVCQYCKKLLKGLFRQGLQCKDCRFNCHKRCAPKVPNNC
# In short: (§1)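 GST-C1b (human, E. coli-expressed) + 3H-PDBu + compound; 37° C 10 min shaking, then ice 20 min. Filter capture, scintillation count. IC50 → Ki via Cheng-Prusoff, per-prep measured Kd.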
# [2] = test system: Panc2.13 (Pancreatic) cell line; experiment: Proliferation of Panc2.13; type: cell-based; settings: for ratio of (IC50 of K01)/(IC50 of compound), Panc2.13: value in parenthesis; for IC50: read-out: IC50 in μM Panc2.13 (Pancreatic)
# In short: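 After a 24 h settling period at 37° C, each line received compound from a 3-fold serial series with DMSO capped at 0.25%. Incubation ran 96 h before CellTiter Glo reagent was added. Inhibition % = (Max − sample)/Max × 100, with Max from DMSO-treated cells.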
# [3] = test system: Namalwa (Lymphoma) cell line; experiment: Proliferation of Namalwa; type: cell-based; settings: for ratio of (IC50 of K01)/(IC50 of compound), Namalwa: value in parenthesis; for IC50: read-out: IC50 in μM Namalwa (Lymphoma)
# In short: (§2)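 Per-line seeding (KP-4 800-1000; HL-60 5000; Namalwa and Mino 5000-10000 cells/well), then 96 h with compound in ≤0.25% DMSO. Luminescence measured 10 min post CellTiter Glo; IC50 and % top inhibition derived from DMSO-normalised inhibition.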
# [4] = test system: Mino (Lymphoma) cell line; experiment: Proliferation of Mino; type: cell-based; settings: for IC50: Homo sapiens, MINO, read-out: IC50 in μM Mino (Lymphoma); for ratio of (IC50 of K01)/(IC50 of compound), Mino: value in parenthesis
# In short: as §2
# [5] = test system: KP-4 (Pancreatic) cell line; experiment: Proliferation of KP-4; type: cell-based; settings: Homo sapiens, KP-4, read-out: IC50 in μM KP-4 (Pancreatic)
# In short: as §2
# [6] = biological target: T2, C1b domain of human PKCδ (Homo sapiens, UniProt Q05655); experiment: Competitive 3H-PDBu binding to C1b domain of PKCδ; settings: Ki PKCδ, 3H-PDBu competition
# T2 construct: Genes encoding C1b domains of human PKCα, δ, ε, θ, and PKD1 (PKCμ) were synthesized; made in house; host or cells: E. coli BL21(DE3)
# In short: as §1
# [7] = test system: PANC1 cells; experiment: Sphere formation assay (cancer stemness); type: cell-based; settings: Homo sapiens, PANC-1, read-out: concentration exhibiting at least 50% inhibition on the sphere forming efficiency
# Description: A group of diterpenoid compounds of the present disclosure were tested to assess their effects on blocking formation of spheres from cancer cell lines such as PANC1, a K-Ras mutant pancreatic cell line. Briefly, PANC1 cells were harvested, re-suspended as single cell suspensions, counted and seeded into Ultra Low Attachment Culture 96-well plate (Corning, Cat #3474) at 100 cells/well in 100 μl of complete media (with 10% FBS) containing 2% Matrigel (Corning, Cat #354234) and DMSO or compounds. Six replicates per condition were seeded. The seeded cells were placed in the 37° C. tissue culture incubator. 10 μl of low serum containing media (with 0.1% FBS) was added to each well every week. Spheres formed after 3-4 weeks were counted. Sphere forming efficiency was expressed as percentage of # of spheres/# of cells seeded.
# T2 sequence (Q05655 230-280 limits assumed): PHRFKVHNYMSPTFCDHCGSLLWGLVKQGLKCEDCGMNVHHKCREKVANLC
compound,measurement,setting,value
CC1=C[C@H]2[C@@]3(O)[C@H](C)C[C@]4(OC(=O)[C@@H](N)CC5CCCCC5)[C@H]([C@@H]3C=C(CO)C[C@]2(O)C1=O)C4(C)C [Compound K101-C1327],Ki,[1],< 0.005 µM
same,"ratio of (IC50 of K01)/(IC50 of compound), Panc2.13",[2],7.1
same,IC50,[2],0.1 to 0.2 µM
same,"ratio of (IC50 of K01)/(IC50 of compound), Namalwa",[3],2.03
same,IC50,[3],0.03 to 0.06 µM
same,IC50,[4],0.001 to 0.01 µM
same,"ratio of (IC50 of K01)/(IC50 of compound), Mino",[4],7.33
same,IC50,[5],0.1 to 0.2 µM
same,Ki,[6],< 0.005 µM
CC1=C[C@H]2[C@@]3(O)[C@H](C)C[C@]4(OC(=O)[C@@H](N)[C@]56C[C@H]7C[C@H](C[C@H](C7)C5)C6)[C@H]([C@@H]3C=C(CO)C[C@]2(O)C1=O)C4(C)C [Compound K101-C1347],Ki,[1],< 0.005 µM
same,"ratio of (IC50 of K01)/(IC50 of compound), Panc2.13",[2],71.7
same,IC50,[2],0.01 to 0.03 µM
same,IC50,[7],≤ 0.05 µM
same,"ratio of (IC50 of K01)/(IC50 of compound), Namalwa",[3],18.2
same,IC50,[3],0.001 to 0.01 µM
same,IC50,[4],0.001 to 0.01 µM
same,"ratio of (IC50 of K01)/(IC50 of compound), Mino",[4],52.2
same,IC50,[5],0.001 to 0.01 µM
same,Ki,[6],< 0.005 µM
CC1=C[C@H]2[C@@]3(O)[C@H](C)C[C@]4(OC(=O)[C@H](N)CCCCCCc5ccccc5)[C@H]([C@@H]3C=C(CO)C[C@]2(O)C1=O)C4(C)C [Compound K101-C134801],Ki,[1],< 0.005 µM
same,"ratio of (IC50 of K01)/(IC50 of compound), Panc2.13",[2],13.4
same,IC50,[2],0.06 to 0.1 µM
same,IC50,[7],≤ 0.15 µM
same,"ratio of (IC50 of K01)/(IC50 of compound), Namalwa",[3],4.93
same,IC50,[3],0.01 to 0.03 µM
same,IC50,[4],0.001 to 0.01 µM
same,"ratio of (IC50 of K01)/(IC50 of compound), Mino",[4],21.3
same,IC50,[5],0.03 to 0.06 µM
same,Ki,[6],0.005 to 0.01 µM
CC1=C[C@H]2[C@@]3(O)[C@H](C)C[C@]4(OC(=O)[C@@H](N)CCCCCCc5ccccc5)[C@H]([C@@H]3C=C(CO)C[C@]2(O)C1=O)C4(C)C [Compound K101-C134802],Ki,[1],< 0.005 µM
same,"ratio of (IC50 of K01)/(IC50 of compound), Panc2.13",[2],57.3
same,IC50,[2],0.01 to 0.03 µM
same,IC50,[7],≤ 0.05 µM
same,"ratio of (IC50 of K01)/(IC50 of compound), Namalwa",[3],16.1
same,IC50,[3],0.001 to 0.01 µM
same,IC50,[4],0.001 to 0.01 µM
same,"ratio of (IC50 of K01)/(IC50 of compound), Mino",[4],52.2
same,IC50,[5],0.001 to 0.01 µM
same,Ki,[6],< 0.005 µM
